Results: ChEMBL document CHEMBL3769353, “Novel indole-based melatonin analogues: Evaluation of antioxidant activity and protective effect against amyloid β-induced damage” (Bioorg Med Chem, 2016)
pIC50: −log10 of the molar value. Activity calls are given as the source filed them. The calls are words filed in the database; no cut-off is given here.

Experiments:
[1] = Antioxidant activity in rat PC12 cells assessed as inhibition of amyloid beta (25 to 35 amino acid residues) induced ROS generation at 50 uM preincubated overnight followed by addition of amyloid beta (25 to 35 amino acid residues) measured after 120 mins by DCFH-DA-based fluorescence assay; format: functional; conditions: PC-12
[2] = tested on: Erythrocyte; assay: Antioxidant activity in human erythrocytes assessed as ROS induced DCFH-DA oxidation at 10 uM by fluorescence analysis in presence of 10 uM of H2O2; format: functional, cell-based
[3] = tested on: PC-12; assay: Neuroprotective activity against amyloid beta (25 to 35 amino acid residues) induced damage in rat PC12 cells assessed as cell viability preincubated for 3 hrs followed by addition of amyloid beta (25 to 35 amino acid residues) for 24 hrs by MTT assay; format: functional, cell-based
[4] = Cytotoxicity against CHOK1 cells assessed as LDH leakage at 10 uM by spectrophotometric analysis; format: cell-based, Cricetulus griseus; conditions: chinese hamster, cho-k1, 10 µM
[5] = Cytotoxicity against rat PC12 cells at 100 uM; format: cell-based; conditions: pc-12, 100 µM
[6] = tested on: Erythrocyte; assay: Antioxidant activity in human erythrocytes assessed as ROS induced DCFH-DA oxidation at 100 uM by fluorescence analysis in presence of 10 uM of H2O2; format: functional, cell-based

Compound | inhibition at 50 µM [1] [%] | Activity [2] | pIC50 [3] | Activity [4] | Activity [5] | Activity [6]
COc1ccc(C(=O)N/N=C/c2c(-c3ccc(F)cc3)[nH]c3ccccc23)cc1 | 19.2 | inactive | < 4.00 | Non-toxic | Non-toxic | –
Fc1ccc(N/N=C/c2c(-c3ccc(F)cc3)[nH]c3ccccc23)cc1 | 74 | inactive | < 4.00 | Non-toxic | Non-toxic | –
Fc1ccc(-c2[nH]c3ccccc3c2/C=N/Nc2ccc(F)cc2F)cc1 | 74.9 | Active | 4.30 | Non-toxic | Non-toxic | Active
Fc1ccc(-c2[nH]c3ccccc3c2/C=N/Nc2cccc(F)c2)cc1 | 77.8 | Active | 4.26 | Non-toxic | Non-toxic | Active
Fc1ccc(-c2[nH]c3ccccc3c2/C=N/Nc2ccc(Cl)cc2Cl)cc1 | 83.8 | Active | 4.29 | Non-toxic | Non-toxic | Active
Fc1ccc(-c2[nH]c3ccccc3c2/C=N/Nc2ccc(Cl)c(Cl)c2)cc1 | 71.2 | Active | 4.18 | Non-toxic | Non-toxic | Active
Fc1ccc(-c2[nH]c3ccccc3c2/C=N/Nc2ccccc2Br)cc1 | 95.5 | Active | 4.43 | Non-toxic | Non-toxic | Active
Fc1ccc(-c2[nH]c3ccccc3c2/C=N/Nc2ccc(Cl)cc2)cc1 | 49.7 | Active | 4.13 | Non-toxic | Non-toxic | Active
Fc1ccc(-c2[nH]c3ccccc3c2/C=N/Nc2cc(Cl)ccc2Cl)cc1 | 59.2 | Active | 4.41 | Non-toxic | Non-toxic | Active
Fc1ccc(-c2[nH]c3ccccc3c2/C=N/Nc2cccc(Br)c2)cc1 | – | Active | – | Non-toxic | Non-toxic | Active
Fc1ccc(-c2[nH]c3ccccc3c2/C=N/Nc2ccccc2Cl)cc1 | 44.1 | Active | 4.42 | Non-toxic | Non-toxic | Active
Fc1ccc(-c2[nH]c3ccccc3c2/C=N/Nc2cccc(Cl)c2)cc1 | 54.6 | Active | 4.36 | Non-toxic | Non-toxic | Active
Fc1ccc(-c2[nH]c3ccccc3c2/C=N/Nc2ccccc2F)cc1 | 88.1 | Active | 4.19 | Non-toxic | Non-toxic | Active
COc1ccc2[nH]cc(CCNC(C)=O)c2c1 [MELATONIN] | 49.9 | – | < 4.00 | – | Non-toxic | –
Fc1ccc(-c2[nH]c3ccccc3c2/C=N/Nc2cc(F)cc(F)c2)cc1 | 86.4 | Active | 4.46 | Non-toxic | Non-toxic | Active
